Measured values reported in article PMC5906710, “Simvastatin Enhances Activity and Trafficking of α7 Nicotinic Acetylcholine Receptor in Hippocampal Neurons Through PKC and CaMKII Signaling Pathways” (Frontiers in Pharmacology, 2018).

Target: T1, α7 nicotinic acetylcholine receptor (α7nAChR) (Mus musculus, UniProt P49582)
T1 construct: gene Chrna7; native receptor in hippocampal CA1 pyramidal cells (slices)
Assay: whole-cell patch-clamp of ACh-evoked currents in mouse hippocampal slices, dose-response

T1 sequence (P49582 23-502): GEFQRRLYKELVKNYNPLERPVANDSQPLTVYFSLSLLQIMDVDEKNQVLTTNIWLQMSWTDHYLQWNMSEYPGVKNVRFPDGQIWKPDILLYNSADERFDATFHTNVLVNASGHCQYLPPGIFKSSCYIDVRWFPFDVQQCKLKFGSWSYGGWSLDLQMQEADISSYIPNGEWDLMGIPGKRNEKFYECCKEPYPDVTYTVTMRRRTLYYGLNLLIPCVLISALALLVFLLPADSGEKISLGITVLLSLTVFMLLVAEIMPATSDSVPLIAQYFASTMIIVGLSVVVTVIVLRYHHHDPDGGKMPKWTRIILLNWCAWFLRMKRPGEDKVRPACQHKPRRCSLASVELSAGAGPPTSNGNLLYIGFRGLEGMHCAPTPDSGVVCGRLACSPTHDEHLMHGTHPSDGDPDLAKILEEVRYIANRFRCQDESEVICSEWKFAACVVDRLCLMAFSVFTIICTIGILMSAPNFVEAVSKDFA

**Q.** `CC(=O)OCC[N+](C)(C)C` [ACh, acetylcholine] was tested. Which EC50 did it give?
**A.** 117.1 ± 0.94 µM
